Laboratory results from article PMC4527935 (Nature structural & molecular biology, 2015).

Key:
[1] = target: T1, yeast AAC carrier 3 (yAAC3), mitochondrial ADP/ATP carrier (Saccharomyces cerevisiae, UniProt P18238); test: NMR chemical shift titration; type: binding
[2] = target: T1, yeast AAC carrier 3 (yAAC3), mitochondrial ADP/ATP carrier; test: ITC; type: binding

T1 sequence (P18238 whole entry): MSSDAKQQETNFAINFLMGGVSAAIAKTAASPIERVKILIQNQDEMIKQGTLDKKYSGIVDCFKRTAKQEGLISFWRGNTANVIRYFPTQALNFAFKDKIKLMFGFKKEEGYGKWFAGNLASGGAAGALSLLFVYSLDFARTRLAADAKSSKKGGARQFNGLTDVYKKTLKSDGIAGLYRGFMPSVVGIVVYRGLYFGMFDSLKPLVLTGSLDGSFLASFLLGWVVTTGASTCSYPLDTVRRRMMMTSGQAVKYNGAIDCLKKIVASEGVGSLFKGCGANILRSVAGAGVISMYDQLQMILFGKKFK

SMILES | Kd [1] | Kd [2]
Nc1ncnc2c1ncn2[C@@H]1O[C@H](COP(=O)(O)OP(=O)(O)O)[C@@H](O)[C@H]1O [ADP] | ~500 µM | 
C=C1[C@@H]2CC[C@H]3[C@]4(C)C[C@H](O[C@@H]5O[C@H](CO)[C@@H](OS(=O)(=O)O)[C@H](OS(=O)(=O)O)[C@H]5OC(=O)CC(C)C)CC(C(=O)O)(C(=O)O)[C@H]4CC[C@]3(C2)[C@H]1O [CATR, carboxyatractyloside] |  | 14.9 ± 9.6 µM
